Reference: patent US20020082273A1, “Agents for use in the treatment of alzheimer's disease” (priority 1998, published 2002)

Assay: Metal reduction assay, Fe^3+ to Fe^2+
Type: biochemical
Conditions: 10 μM Fe^3+, PBS pH 7.4, 1 hr 37° C.
Method: The metal reduction assay was performed using a 96-well microtiter plate (Costar) based upon a modification of established protocols (Landers, J. W., et al., Amer. Clin. Path. 29:590 (1958); Landers, J. W., et al., Clinica Chimica Acta 3:329 (1958)). Polypeptides (10 μM) or Vitamin C (100 μM), metal ions (10 μM, Fe(NO3)3 or Cu(NO3)2), and reduced metal ion indicators, bathophenanthrolinedisulfonic acid (BP, for Fe^2+, Sigma, 200 μM) or bathocuproinedisulfonic acid (BC, for Cu^+, Sigma, 200 μM), were coincubated in phosphate buffered saline (PBS), pH 7.4, for 1 hr at 37° C. The metal ion solutions were prepared by direct dilution in the buffer from their aqueous stocks purchased from National Institute of Standards and Technology (NIST). Absorbances were then measured at 536 mn (Fe^2+-BP complex) and 483 nm (Cu^+-BC complex), respectively, using a 96-well plate reader (SPECTRAmax 250, Molecular Devices, CA). In control samples, both metal ion and indicator were present to determine the background buffer signal. As a further control, both metal ion and peptide were present in the absence of indicator to estimate the contribution of light scattering due to turbidity to the absorbance reading at these wavelengths. The net absorbances (ΔA) at 536 nm or 483 nm were obtained by deducting the absorbances from these controls from the absorbances generated by the peptide and metal in the presence of the respective indicator.
The concentrations of reduced metal ions (Fe^2+ or Cu^+) were quantified based on the formula: Fe^2+ or Cu^+ (˜M)=A*10^6/(L*M), where L is the measured equivalent vertical pathlength for a well of 300 μL volume as described in the instrument's specifications manual (0.856 cm for Fe^2+; 1.049 cm for Cu^+); M is the known molecular absorbance (M^−1 cm^−1) which is 7124 (for Fe^2+-BP complex) or 2762 (for Cu^+-BC complex).

Aβ1-40: synthetic human Aβ peptide, residues 1-40
reduction of available Fe^3+: 12%
